Values after ≈ are worked out from the molar mass of the structure shown.
Tests used:
[1] = molecular target: Proto-oncogene tyrosine-protein kinase receptor Ret (Homo sapiens, UniProt P07949); assay: Inhibition of recombinant human N-terminal GST-tagged RET (658 to end residues) expressed in baculovirus Sf21 insect cells preincubated for 5 mins followed by biotinyl-beta Abeta Abeta AAEEEEYFELVAKKK substrate addition after 30 to 60 mins in presence of ATP by fluorescence assay
NCI-H1975 = assay: Antitumor activity against human NCI-H1975 cells xenografted in nude mouse assessed as tumor growth inhibition at 25 mg/kg administered via oral gavage qd measured every 2 days up to 18 days relative to control; format: functional; conditions: read-out: TGI
Homo sapiens [2] = organism: Homo sapiens; assay: Selectivity ratio of IC50 for recombinant human N-terminal GST-tagged FLT3 (564 to end residues) to IC50 for human full length N-terminal His6-tagged BMX
[3] = molecular target: Tyrosine-protein kinase Fyn (Homo sapiens, UniProt P06241); assay: Inhibition of recombinant human full length N-terminal His6-tagged FYN expressed in baculovirus Sf21 insect cells preincubated for 5 mins followed by biotinyl-beta Abeta Abeta AYQAEENTYDEYEN substrate addition after 30 to 60 mins in presence of ATP by fluorescence assay
[4] = molecular target: Tyrosine-protein kinase Lyn (Homo sapiens, UniProt P07948); assay: Inhibition of recombinant human full length N-terminal His6-tagged LYN expressed in Sf21 insect cells preincubated for 5 mins followed by […] substrate addition after 30 to 60 mins in presence of ATP by fluorescence assay
Homo sapiens [5] = organism: Homo sapiens; assay: Selectivity ratio of IC50 for recombinant human N-terminal His6-tagged FGR (2 to end residues) to IC50 for human full length N-terminal His6-tagged BMX
[6] = molecular target: Receptor tyrosine-protein kinase erbB-2 (Homo sapiens, UniProt P04626); assay: Inhibition of human C-terminal 6His-tagged Her2 (676 to end) expressed in baculovirus Sf21 insect cells preincubated for 5 mins followed by biotinyl-beta Abeta Abeta AAEEEEYFELVAKKK substrate addition after 30 to 60 mins in presence of ATP by fluorescence assay
A549 = assay: Antiproliferative activity against human A549 cells harboring wild type EGFR after 72 hrs by MTT assay; format: functional, cell-based; conditions: A549, 72 h
Homo sapiens [7] = organism: Homo sapiens; assay: Selectivity ratio of IC50 for recombinant human full length N-terminal His6-tagged NEK2 to IC50 for human full length N-terminal His6-tagged BMX
[8] = molecular target: Tyrosine-protein kinase Fer (Homo sapiens, UniProt P16591); assay: Inhibition of recombinant human N-terminal His6-tagged FER (541 to end residues) expressed in baculovirus Sf21 insect cells preincubated for 5 mins followed by substrate addition after 30 to 60 mins in presence of ATP by fluorescence assay
[9] = molecular target: Proto-oncogene tyrosine-protein kinase Src (Homo sapiens, UniProt P12931); assay: Inhibition of recombinant human full length N-terminal His6-tagged SRC expressed in Sf21 insect cells preincubated for 5 mins followed by substrate addition after 30 to 60 mins in presence of ATP by fluorescence assay
[10] = molecular target: Tyrosine-protein kinase TXK (Homo sapiens, UniProt P42681); assay: Inhibition of recombinant human N-terminal His6-tagged TXK (256 to end residues) expressed in baculovirus Sf21 insect cells preincubated for 5 mins followed by substrate addition after 30 to 60 mins in presence of ATP by fluorescence assay
[11] = molecular target: Tyrosine-protein kinase Fgr (Homo sapiens, UniProt P09769); assay: Inhibition of recombinant human N-terminal His6-tagged FGR (2 to end residues) expressed in baculovirus Sf21 insect cells preincubated for 5 mins followed by substrate addition after 30 to 60 mins in presence of ATP by fluorescence assay
Homo sapiens [12] = organism: Homo sapiens; assay: Selectivity ratio of IC50 for recombinant human full length N-terminal His6-tagged SRC to IC50 for human full length N-terminal His6-tagged BMX
[13] = molecular target: Protein-tyrosine kinase 6 (Homo sapiens, UniProt Q13882); assay: Inhibition of recombinant human full length N-terminal His6-tagged BRK expressed in baculovirus Sf21 insect cells preincubated for 5 mins followed by substrate addition after 30 to 60 mins in presence of ATP by fluorescence assay
Homo sapiens [14] = organism: Homo sapiens; assay: Selectivity ratio of IC50 for human N-terminal 6His-tagged HER4 (706 to 991 residues) to IC50 for human full length N-terminal His6-tagged BMX
Homo sapiens [15] = organism: Homo sapiens; assay: Selectivity ratio of IC50 for C-terminal His6-tagged human Her2 (676 to end residues) to IC50 for human full length N-terminal His6-tagged BMX
Homo sapiens [16] = organism: Homo sapiens; assay: Selectivity ratio of IC50 for human JAK1 to IC50 for human full length N-terminal His6-tagged BMX
[17] = molecular target: Tyrosine-protein kinase Blk (Homo sapiens, UniProt P51451); assay: Inhibition of BLK (unknown origin) preincubated for 5 mins followed by substrate addition after 30 to 60 mins in presence of ATP by fluorescence assay
[18] = molecular target: Tyrosine-protein kinase JAK1 (Homo sapiens, UniProt P23458); assay: Inhibition of human JAK1 expressed in baculovirus in Sf21 insect cells preincubated for 5 mins followed by substrate addition after 30 to 60 mins in presence of ATP by fluorescence assay
Homo sapiens [19] = organism: Homo sapiens; assay: Selectivity ratio of IC50 for recombinant human full length N-terminal His6-tagged BTK to IC50 for human full length N-terminal His6-tagged BMX
Mus musculus = assay: Toxicity in nude mouse xenografted with human NCI-H1975 cells assessed as adverse effects at 25 mg/kg administered qd via oral gavage for 18 days measured on day 14; format: organism-based; conditions: in vivo, 432 h
[20] = molecular target: Tyrosine-protein kinase FRK (Homo sapiens, UniProt P42685); assay: Inhibition of recombinant human N-terminal His6-tagged FRK (218 to end residues) expressed in baculovirus Sf21 insect cells preincubated for 5 mins followed by substrate addition after 30 to 60 mins in presence of ATP by fluorescence assay
[21] = molecular target: Tyrosine-protein kinase JAK2 (Homo sapiens, UniProt O60674); assay: Inhibition of recombinant human C-terminal His6-tagged JAK2 (808 to end residues) expressed in baculovirus Sf21 insect cells preincubated for 5 mins followed by substrate addition after 30 to 60 mins in presence of ATP by fluorescence assay
HCC827 = assay: Antiproliferative activity against human HCC827 cells harboring EGFR Del19 mutant after 72 hrs by MTT assay; format: functional, cell-based; conditions: HCC827, 72 h
Homo sapiens [22] = organism: Homo sapiens; assay: Selectivity ratio of IC50 for recombinant human full length N-terminal His6-tagged SYK to IC50 for human full length N-terminal His6-tagged BMX
Homo sapiens [23] = organism: Homo sapiens; assay: Selectivity ratio of IC50 for recombinant human N-terminal His6-tagged JAK3 (781 to end residues) to IC50 for human full length N-terminal His6-tagged BMX
[24] = molecular target: Platelet-derived growth factor receptor alpha (Homo sapiens, UniProt P16234); assay: Inhibition of human PDGFRalpha expressed in baculovirus Sf21 insect cells preincubated for 5 mins followed by substrate addition after 30 to 60 mins in presence of ATP by fluorescence assay
[25] = Aqueous solubility of the compound at 1 mg; format: physicochemical

Tyrosine-protein kinase Fyn, sequence (P06241 whole entry): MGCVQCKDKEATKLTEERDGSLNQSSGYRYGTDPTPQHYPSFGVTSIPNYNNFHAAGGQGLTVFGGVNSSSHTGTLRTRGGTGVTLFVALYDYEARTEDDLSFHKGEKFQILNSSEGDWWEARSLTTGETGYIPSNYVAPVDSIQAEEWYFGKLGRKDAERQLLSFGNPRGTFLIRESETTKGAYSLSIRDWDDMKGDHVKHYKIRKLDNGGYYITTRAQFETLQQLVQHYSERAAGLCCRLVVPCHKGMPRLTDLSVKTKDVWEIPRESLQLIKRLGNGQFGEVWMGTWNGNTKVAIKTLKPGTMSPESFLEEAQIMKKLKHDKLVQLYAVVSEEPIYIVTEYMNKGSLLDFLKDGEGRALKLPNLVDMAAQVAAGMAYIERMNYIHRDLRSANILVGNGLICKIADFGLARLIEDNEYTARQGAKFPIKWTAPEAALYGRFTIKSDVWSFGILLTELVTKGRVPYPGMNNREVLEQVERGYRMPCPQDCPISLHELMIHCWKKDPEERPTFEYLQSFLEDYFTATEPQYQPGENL
Tyrosine-protein kinase TXK, sequence (P42681 whole entry): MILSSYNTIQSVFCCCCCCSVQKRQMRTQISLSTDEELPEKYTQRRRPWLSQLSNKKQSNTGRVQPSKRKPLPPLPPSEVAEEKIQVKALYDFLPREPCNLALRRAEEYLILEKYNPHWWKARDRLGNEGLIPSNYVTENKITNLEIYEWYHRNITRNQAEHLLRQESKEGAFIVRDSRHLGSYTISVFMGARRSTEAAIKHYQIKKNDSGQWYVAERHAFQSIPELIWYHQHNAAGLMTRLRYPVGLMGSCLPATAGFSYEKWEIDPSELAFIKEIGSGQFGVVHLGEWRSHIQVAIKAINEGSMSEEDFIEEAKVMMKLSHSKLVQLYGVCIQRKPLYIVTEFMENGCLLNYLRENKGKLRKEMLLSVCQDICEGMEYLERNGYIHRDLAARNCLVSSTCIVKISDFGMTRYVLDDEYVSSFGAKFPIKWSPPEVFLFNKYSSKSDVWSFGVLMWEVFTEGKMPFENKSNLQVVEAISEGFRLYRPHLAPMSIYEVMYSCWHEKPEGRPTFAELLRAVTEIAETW
Tyrosine-protein kinase Fer, sequence (P16591 whole entry): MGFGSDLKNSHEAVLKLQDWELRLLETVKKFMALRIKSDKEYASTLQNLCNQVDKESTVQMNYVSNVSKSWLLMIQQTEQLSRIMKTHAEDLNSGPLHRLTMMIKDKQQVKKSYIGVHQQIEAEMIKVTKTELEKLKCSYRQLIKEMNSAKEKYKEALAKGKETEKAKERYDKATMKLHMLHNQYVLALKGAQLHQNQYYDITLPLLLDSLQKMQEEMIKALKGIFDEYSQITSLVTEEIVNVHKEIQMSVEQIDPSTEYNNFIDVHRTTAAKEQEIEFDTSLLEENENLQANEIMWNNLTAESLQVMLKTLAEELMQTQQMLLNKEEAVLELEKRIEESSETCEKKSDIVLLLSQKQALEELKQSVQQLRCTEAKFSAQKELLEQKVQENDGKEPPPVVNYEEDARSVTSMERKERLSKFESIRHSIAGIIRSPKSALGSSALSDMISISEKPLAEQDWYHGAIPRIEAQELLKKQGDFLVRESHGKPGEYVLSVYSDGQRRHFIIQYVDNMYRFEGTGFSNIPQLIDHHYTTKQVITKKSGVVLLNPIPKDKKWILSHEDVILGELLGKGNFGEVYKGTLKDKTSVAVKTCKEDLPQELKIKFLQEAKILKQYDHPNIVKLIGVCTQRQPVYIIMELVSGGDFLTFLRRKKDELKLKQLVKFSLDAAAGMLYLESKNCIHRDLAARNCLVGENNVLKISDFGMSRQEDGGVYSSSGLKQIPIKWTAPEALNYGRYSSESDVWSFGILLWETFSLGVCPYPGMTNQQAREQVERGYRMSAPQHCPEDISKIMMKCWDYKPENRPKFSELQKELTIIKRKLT
Tyrosine-protein kinase FRK, sequence (P42685 whole entry): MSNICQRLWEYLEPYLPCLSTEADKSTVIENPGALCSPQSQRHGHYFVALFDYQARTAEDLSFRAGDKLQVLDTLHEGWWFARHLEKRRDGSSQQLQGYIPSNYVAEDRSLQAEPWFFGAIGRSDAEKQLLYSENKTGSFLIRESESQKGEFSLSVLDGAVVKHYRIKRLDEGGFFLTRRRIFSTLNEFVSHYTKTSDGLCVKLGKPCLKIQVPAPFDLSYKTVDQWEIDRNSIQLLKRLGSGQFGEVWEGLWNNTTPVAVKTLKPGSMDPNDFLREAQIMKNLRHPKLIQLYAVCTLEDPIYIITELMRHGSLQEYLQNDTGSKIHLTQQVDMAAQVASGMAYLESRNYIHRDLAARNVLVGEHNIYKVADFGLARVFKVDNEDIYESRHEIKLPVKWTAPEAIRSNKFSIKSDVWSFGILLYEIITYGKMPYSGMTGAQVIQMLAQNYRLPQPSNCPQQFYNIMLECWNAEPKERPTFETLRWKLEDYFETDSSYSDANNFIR
Proto-oncogene tyrosine-protein kinase receptor Ret, sequence (P07949 whole entry): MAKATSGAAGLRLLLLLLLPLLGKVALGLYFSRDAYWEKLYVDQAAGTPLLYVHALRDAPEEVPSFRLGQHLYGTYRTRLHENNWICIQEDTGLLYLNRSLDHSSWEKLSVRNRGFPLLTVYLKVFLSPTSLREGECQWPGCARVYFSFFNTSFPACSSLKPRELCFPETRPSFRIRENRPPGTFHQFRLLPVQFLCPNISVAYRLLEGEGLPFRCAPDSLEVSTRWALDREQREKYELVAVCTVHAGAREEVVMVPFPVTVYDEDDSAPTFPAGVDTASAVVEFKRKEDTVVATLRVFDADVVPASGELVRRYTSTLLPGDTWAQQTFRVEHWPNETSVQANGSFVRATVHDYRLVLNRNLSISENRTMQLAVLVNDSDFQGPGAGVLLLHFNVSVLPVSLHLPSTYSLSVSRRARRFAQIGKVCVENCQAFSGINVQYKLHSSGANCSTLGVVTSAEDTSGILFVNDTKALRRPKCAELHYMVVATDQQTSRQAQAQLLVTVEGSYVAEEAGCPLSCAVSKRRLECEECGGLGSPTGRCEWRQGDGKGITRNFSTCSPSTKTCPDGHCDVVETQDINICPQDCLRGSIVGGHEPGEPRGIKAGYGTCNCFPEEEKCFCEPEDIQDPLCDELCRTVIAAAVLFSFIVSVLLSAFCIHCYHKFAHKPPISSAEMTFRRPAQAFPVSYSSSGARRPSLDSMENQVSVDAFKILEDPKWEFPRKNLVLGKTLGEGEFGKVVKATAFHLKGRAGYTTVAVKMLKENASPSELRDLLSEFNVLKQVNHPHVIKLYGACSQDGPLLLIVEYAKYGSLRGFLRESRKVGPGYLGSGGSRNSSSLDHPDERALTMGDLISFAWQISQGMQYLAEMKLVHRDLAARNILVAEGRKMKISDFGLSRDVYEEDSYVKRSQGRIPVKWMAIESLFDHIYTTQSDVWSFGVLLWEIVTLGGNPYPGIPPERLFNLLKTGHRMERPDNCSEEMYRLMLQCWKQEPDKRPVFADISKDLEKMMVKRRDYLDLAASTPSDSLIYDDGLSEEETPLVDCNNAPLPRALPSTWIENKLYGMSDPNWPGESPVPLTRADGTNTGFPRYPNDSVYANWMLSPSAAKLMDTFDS
Proto-oncogene tyrosine-protein kinase Src, sequence (P12931 2-536 limits assumed): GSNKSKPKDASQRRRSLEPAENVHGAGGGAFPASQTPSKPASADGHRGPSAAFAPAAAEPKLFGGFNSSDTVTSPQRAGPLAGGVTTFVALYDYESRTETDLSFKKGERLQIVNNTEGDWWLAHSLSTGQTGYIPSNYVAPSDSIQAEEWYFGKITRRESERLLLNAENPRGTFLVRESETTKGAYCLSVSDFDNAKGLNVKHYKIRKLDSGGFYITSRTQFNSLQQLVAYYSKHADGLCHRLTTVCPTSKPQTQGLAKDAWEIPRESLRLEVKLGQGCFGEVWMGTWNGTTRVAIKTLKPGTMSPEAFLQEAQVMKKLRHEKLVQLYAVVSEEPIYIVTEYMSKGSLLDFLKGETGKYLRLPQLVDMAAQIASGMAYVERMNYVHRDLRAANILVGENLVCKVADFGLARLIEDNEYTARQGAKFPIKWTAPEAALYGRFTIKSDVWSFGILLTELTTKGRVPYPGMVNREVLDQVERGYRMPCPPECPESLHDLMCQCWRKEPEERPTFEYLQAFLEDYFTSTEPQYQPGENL
Tyrosine-protein kinase Fgr, sequence (P09769 whole entry): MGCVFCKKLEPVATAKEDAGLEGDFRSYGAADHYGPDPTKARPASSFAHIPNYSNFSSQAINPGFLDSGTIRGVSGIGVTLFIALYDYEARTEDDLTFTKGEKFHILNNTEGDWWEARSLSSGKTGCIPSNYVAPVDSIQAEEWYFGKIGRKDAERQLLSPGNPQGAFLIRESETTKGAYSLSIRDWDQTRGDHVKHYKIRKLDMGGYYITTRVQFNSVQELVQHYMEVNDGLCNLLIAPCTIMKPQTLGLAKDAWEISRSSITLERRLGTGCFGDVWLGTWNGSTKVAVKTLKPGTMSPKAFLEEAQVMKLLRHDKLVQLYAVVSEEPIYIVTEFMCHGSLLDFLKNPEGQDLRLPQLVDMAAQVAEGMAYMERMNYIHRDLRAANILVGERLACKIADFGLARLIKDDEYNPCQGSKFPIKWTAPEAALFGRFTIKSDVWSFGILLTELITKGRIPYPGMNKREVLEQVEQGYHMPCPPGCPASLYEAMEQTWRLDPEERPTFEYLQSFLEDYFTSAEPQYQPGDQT
Protein-tyrosine kinase 6, sequence (Q13882 whole entry, the tested form may be a part): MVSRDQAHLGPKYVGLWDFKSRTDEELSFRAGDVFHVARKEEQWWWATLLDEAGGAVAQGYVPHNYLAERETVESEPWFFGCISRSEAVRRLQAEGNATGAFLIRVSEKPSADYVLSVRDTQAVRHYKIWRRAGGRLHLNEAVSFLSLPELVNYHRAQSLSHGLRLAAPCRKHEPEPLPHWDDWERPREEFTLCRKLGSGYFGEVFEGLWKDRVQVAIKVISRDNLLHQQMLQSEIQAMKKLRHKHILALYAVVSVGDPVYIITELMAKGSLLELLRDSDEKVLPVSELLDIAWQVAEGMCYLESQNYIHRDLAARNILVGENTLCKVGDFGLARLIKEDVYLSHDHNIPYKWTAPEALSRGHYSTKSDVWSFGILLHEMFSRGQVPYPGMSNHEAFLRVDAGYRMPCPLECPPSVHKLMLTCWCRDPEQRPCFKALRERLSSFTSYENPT

- IC50 [1]: 89.5 nM
- Ratio IC50 (Homo sapiens [2]): 91.7
- IC50 [3]: 430 nM
- IC50 [4]: 312 nM
- Ratio IC50 (Homo sapiens [5]): 3.7
- IC50 [6]: 1350 nM
- IC50 (A549): 4150 nM
- Ratio IC50 (Homo sapiens [7]): > 280
- IC50 [8]: 5910 nM
- IC50 [9]: 197 nM
- IC50 [10]: 883 nM
- IC50 [11]: 133 nM
- Ratio IC50 (Homo sapiens [12]): 5.5
- IC50 [13]: 220 nM
- Ratio IC50 (Homo sapiens [14]): 28.1
- Ratio IC50 (Homo sapiens [15]): 37.8
- Ratio IC50 (Homo sapiens [16]): > 280
- IC50 [17]: 76.4 nM
- IC50 [18]: > 10000 nM
- Ratio IC50 (Homo sapiens [19]): 2.5
- IC50 [20]: 510 nM
- IC50 [21]: > 10000 nM
- IC50 (HCC827): 14 nM
- Ratio IC50 (Homo sapiens [22]): > 280
- Ratio IC50 (Homo sapiens [23]): 229
- IC50 [24]: > 10000 nM
- solubility [25]: 100 µg/mL (≈ 234 µM)
Compound: C=CS(=O)(=O)N1CCC[C@@H]1Cn1cc(-c2ccc3c(c2)OCO3)c2c(N)ncnc21
- inhibition in vivo at 25 mg/kg (NCI-H1975): 73.9%
- Activity (Mus musculus): Non-Toxic

— ChEMBL document CHEMBL4052785, “Discovery of (R)-5-(benzo[d][1,3]dioxol-5-yl)-7-((1-(vinylsulfonyl)pyrrolidin-2-yl)methyl)-7H-pyrrolo[2,3-d]pyrimidin-4-amine (B6) as a potent Bmx inhibitor for the treatment of NSCLC” (Bioorg Med Chem Lett, 2017)
